The values below come from article PMC6272715, “Discovery of Novel Small Molecule Anti-HCV Agents via the CypA Inhibitory Mechanism Using O-Acylation-Directed Lead Optimization” (Molecules, 2015).

The test system of series [1] is HCV JFH1-2a replicon. Description: HCV JFH1-2a subgenomic replicon assay (Renilla luciferase, Huh 7.5.1 replicon cells). Type of series: cell-based. Particulars: Hepatitis C virus. (A replicon is a self-replicating genome or part of one, used to study replication in cells.)
Series [2] can be described thus: Cell proliferation (cytotoxicity) assay, WST-1. Type of series: cell-based. Particulars: human, Huh 7.5.1 cells, Table 4, 48 h. The method, then:
Cell Proliferation Assay: Huh 7.5.1 cells were seeded at a density of 2 × 10^4 cells per well in 96-well plates overnight. The cells were respectively incubated with serial diluted compounds for 48 h, and the viability of Huh7.5.1 cells was determined in 96-well tissue culture plates using cell proliferation reagent WST-1 (Roche, Basel, Switzerland). The absorbance (OD450 /reference OD630) was measured to detect the cytotoxicity of compounds, according to the manufacturer’s protocol of Cell Proliferation Reagent WST-1.

For series [3], the system named is HCV H77-1a replicon. In words: HCV H77-1a subgenomic replicon assay. Format: cell-based. Particulars: Hepatitis C virus; Table 4; read-out: Anti-HCV Activity EC50 ± SD Replicon Assay H77-1a.
Series [4] concerns JFH1-2a virus (wild type). Description: HCV virus assay, JFH1-2a wild type, Huh 7.5.1 cells. The note with it: Hepatitis C virus, Huh-7.5.1, read-out: Anti-HCV Activity EC50 ± SD Virus Assay JFH1-2a.
Series [5] concerns HCV Con1-1b replicon. In words: HCV Con1-1b subgenomic replicon assay. Type of series: cell-based. Particulars: Hepatitis C virus; Table 4; read-out: Anti-HCV Activity EC50 ± SD Replicon Assay Con1-1b.
Setting [6] is: Table 1, mean ± SD of three independent experiments, read-out: Anti-HCV JFH1-2a Replicon Assay EC50 ± SD.
Setting [7] is: Table 4, read-out: Anti-HCV Activity EC50 ± SD Replicon Assay JFH1-2a.

Read-outs that look alike come from different tables or passages of the source.

For orientation: EC50 means the concentration that produces a half-maximal response. Turning to `O=C(NC(=O)c1c(O)cccc1O)Nc1cccc2ccccc12` [Compound 2], the EC50 in series [1] (setting [6]) is more than 10000 nM.
The same measure, in the same setting: as for `O=C(NCc1ccccc1)NC(=O)c1c(O)cccc1O` [Compound 3], the figure is more than 50000 nM; as for `O=C(NC(=O)c1c(O)cccc1O)NC1CCCCC1` [Compound 4], more than 50000 nM; as for `O=C(NC(=O)c1ccccc1Cl)NC1c2ccccc2-c2ccccc21` [Compound 5], more than 50000 nM.
As to `O=C(NC(=O)c1ccccc1[N+](=O)[O-])NC1c2ccccc2-c2ccccc21` [Compound 6], the half-maximal effective concentration (EC50) in series [1] (setting [6]) was more than 50000 nM.
With `N#Cc1ccccc1C(=O)NC(=O)NC1c2ccccc2-c2ccccc21` [Compound 7], the EC50 in series [1] (setting [6]) was more than 50000 nM.
`O=C(NC(=O)c1ccccc1F)NC1c2ccccc2-c2ccccc21` [Compound 8]: the EC50 in series [1] (setting [6]) worked out at 1650 ± 320 nM.
For `O=C(NC(=O)c1ccccc1C(F)(F)F)NC1c2ccccc2-c2ccccc21` [Compound 9], the EC50 in series [1] (setting [6]) is more than 10000 nM.
On the same count and under the same terms, the value for `CSc1ccccc1C(=O)NC(=O)NC1c2ccccc2-c2ccccc21` [Compound 10] was more than 50000 nM; that for `O=C(NC(=O)c1c(F)cccc1F)NC1c2ccccc2-c2ccccc21` [Compound 11] was more than 50000 nM.
The same measure, in the same setting: the value for `CSc1cccc(F)c1C(=O)NC(=O)NC1c2ccccc2-c2ccccc21` [Compound 12] was more than 50000 nM; that for `COc1cccc(Cl)c1C(=O)NC(=O)NC1c2ccccc2-c2ccccc21` [Compound 13] was more than 50000 nM.
As a reminder, the CC50 is the concentration that lowers cell viability or growth by half. A lower CC50 goes with greater toxicity to the cells. The compound `CC(=O)Oc1cccc(OC(C)=O)c1C(=O)NC(=O)NC1c2ccccc2-c2ccccc21` [Compound 15, 1-[2,6-Bis-(acetoxy)benzoyl]-3-(9H-fluoren-9-yl)-urea] came in with a CC50 at 48 h in series [2] of more than 16000 nM. The EC50 in series [3] was 800 ± 130 nM; in series [4], 740 ± 360 nM; in series [1] (setting [6]), 460 ± 50 nM; in series [1] (setting [7]), 460 ± 50 nM; in series [5], 360 ± 40 nM.
As for `O=C(NC(=O)c1c(O)cccc1OCCO)NC1c2ccccc2-c2ccccc21` [Compound 16], the EC50 in series [1] (setting [6]) was more than 20000 nM.
On the same count and under the same terms, the value for `O=C(NC(=O)c1c(OCCO)cccc1OCCO)NC1c2ccccc2-c2ccccc21` [Compound 17] was more than 20000 nM.
In general, melting point refers to the temperature of the solid-liquid transition. In turn, `CCC(=O)Oc1cccc(O)c1C(=O)NC(=O)NC1c2ccccc2-c2ccccc21` [Compound 19, 1-(2-Hydroxy-6-propionyloxybenzoyl)-3-(9H-fluoren-9-yl)-urea] yielded a melting point of 206 to 216 °C. In series [2], this compound returned a CC50 at 48 h of more than 16000 nM. Also, the EC50 in series [3] was 380 ± 220 nM. Besides, the EC50 in series [4] was found to be 470 ± 40 nM. Also, the EC50 in series [1] (setting [7]) amounted to 940 ± 70 nM. The concentration giving a half-maximal response (EC50) in series [5] came to 720 ± 200 nM.
`CCCC(=O)Oc1cccc(O)c1C(=O)NC(=O)NC1c2ccccc2-c2ccccc21` [Compound 20, 1-(2-Hydroxy-6-n-butyryloxybenzoyl)-3-(9H-fluoren-9-yl)-urea] had a melting point of 204 to 210 °C. For the same compound, in series [2], the CC50 at 48 h was more than 16000 nM. Also, in series [3], the EC50 came out at 980 ± 30 nM. Besides, the EC50 in series [4] came to 280 ± 20 nM. Moreover, the concentration giving a half-maximal response (EC50) in series [1] (setting [7]) came to 700 ± 20 nM. Further, the EC50 in series [5] was 490 ± 20 nM.
Turning to `O=C(NC(=O)c1c(O)cccc1OC(=O)C1CC1)NC1c2ccccc2-c2ccccc21` [Compound 21, 1-(2-Cyclopropyl formyloxy-6-hydroxybenzoyl)-3-(9H-fluoren-9-yl)-urea], the melting point lay in the range of 194 to 199 °C. In series [2], this compound gave a CC50 at 48 h of more than 16000 nM. In addition, in series [3], the half-maximal effective concentration (EC50) came to 570 ± 200 nM. The EC50 in series [4] was 780 ± 350 nM. In addition, the EC50 in series [1] (setting [7]) was 430 ± 80 nM. The EC50 in series [5] was determined as 850 ± 240 nM.
Compound `CCCCC(=O)Oc1cccc(O)c1C(=O)NC(=O)NC1c2ccccc2-c2ccccc21` [Compound 22, 1-(2-Hydroxy-6-valeryloxybenzoyl)-3-(9H-fluoren-9-yl)-urea] returned a melting point of 193 to 199 °C. Besides, the CC50 at 48 h in series [2] was more than 16000 nM. Also, the EC50 in series [3] amounted to 1000 ± 60 nM. The EC50 in series [4] amounted to 440 ± 30 nM. For the same compound, the EC50 in series [1] (setting [7]) was 470 ± 20 nM. In addition, in series [5], the EC50 was found to be 440 ± 100 nM.
As to `CC(C)(C)C(=O)Oc1cccc(O)c1C(=O)NC(=O)NC1c2ccccc2-c2ccccc21` [Compound 23, 1-(2-Hydroxy-6-trimethylacetoxyloxybenzoyl)-3-(9H-fluoren-9-yl)-urea], the melting point lay within 187 to 189 °C. In series [2], the CC50 at 48 h is more than 16000 nM. The EC50 in series [3] turned out to be 670 ± 50 nM. The EC50 in series [4] was determined as 530 ± 50 nM. Moreover, the EC50 in series [1] (setting [7]) was 480 ± 20 nM. The EC50 in series [5] was found to be 830 ± 280 nM.
In the case of `CCCCCC(=O)Oc1cccc(O)c1C(=O)NC(=O)NC1c2ccccc2-c2ccccc21` [Compound 24, 1-(2-Hexanoyloxy-6-hydroxybenzoyl)-3-(9H-fluoren-9-yl)-urea], the melting point was 200 to 222 °C. In series [2], the CC50 at 48 h is more than 16000 nM. Further, the half-maximal effective concentration (EC50) in series [3] stood at 1050 ± 10 nM. In addition, the EC50 in series [4] was 740 ± 370 nM. For the same compound, the EC50 in series [1] (setting [7]) came to 1080 ± 50 nM. The EC50 in series [5] stood at 1000 ± 10 nM.
`O=C(NC(=O)c1c(OC(=O)c2ccccc2)cccc1OC(=O)c1ccccc1)NC1c2ccccc2-c2ccccc21` [Compound 26, 1-[2,6-Bis-(benzoyloxy)benzoyl]-3-(9H-fluoren-9-yl)-urea] showed a melting point of 211 to 213 °C. The compound also registered a CC50 at 48 h in series [2] of more than 16000 nM. Also, in series [3], the EC50 was 530 ± 210 nM. Besides, the EC50 in series [4] worked out at 1090 ± 30 nM. Moreover, in series [1] (setting [7]), the EC50 is 360 ± 30 nM. Moreover, the EC50 in series [5] was found to be 390 ± 50 nM.
Compound `CCC(=O)Oc1cccc(OC(=O)CC)c1C(=O)NC(=O)NC1c2ccccc2-c2ccccc21` [Compound 27, 1-[2,6-Bis-(propionyloxy)benzoyl]-3-(9H-fluoren-9-yl)-urea] registered a melting point of 165 to 167 °C. In addition, the CC50 at 48 h in series [2] was more than 16000 nM. Moreover, in series [3], the EC50 worked out at 520 ± 270 nM. Also, in series [4], the EC50 is 420 ± 80 nM. Further, in series [1] (setting [7]), the EC50 is 380 ± 30 nM. Besides, the EC50 in series [5] came to 380 ± 20 nM.
`CCCC(=O)Oc1cccc(OC(=O)CCC)c1C(=O)NC(=O)NC1c2ccccc2-c2ccccc21` [Compound 28, 1-[2,6-Bis-(n-butyryloxy)benzoyl]-3-(9H-fluoren-9-yl)-urea] registered a melting point of 186 to 188 °C. Besides, in series [2], the CC50 at 48 h is more than 16000 nM. Besides, the EC50 in series [3] is 790 ± 200 nM. In addition, in series [4], the EC50 is 680 ± 470 nM. Moreover, the EC50 in series [1] (setting [7]) amounted to 840 ± 320 nM. Further, in series [5], the concentration giving a half-maximal response (EC50) was determined as 620 ± 150 nM.
In turn, `O=C(NC(=O)c1c(OC(=O)C2CC2)cccc1OC(=O)C1CC1)NC1c2ccccc2-c2ccccc21` [Compound 29, 1-[2,6-Bis-(cyclopropylformyloxy)benzoyl]-3-(9H-fluoren-9-yl)-urea] registered a melting point of 183 to 186 °C. The cytotoxic concentration (CC50) at 48 h in series [2] was more than 16000 nM. The EC50 in series [3] is 520 ± 140 nM. Further, in series [4], the EC50 came to 740 ± 350 nM. The EC50 in series [1] (setting [7]) stood at 420 ± 140 nM. The concentration for a half-maximal effect (EC50) in series [5] turned out to be 600 ± 190 nM.
The compound `CCCCC(=O)Oc1cccc(OC(=O)CCCC)c1C(=O)NC(=O)NC1c2ccccc2-c2ccccc21` [Compound 30, 1-[2,6-Bis-(valeryloxy)benzoyl]-3-(9H-fluoren-9-yl)-urea] had a melting point of 172 to 174 °C. Also, the CC50 at 48 h in series [2] was more than 16000 nM. For the same compound, the concentration for a half-maximal effect (EC50) in series [3] came out at 730 ± 110 nM. Besides, the EC50 in series [4] is 470 ± 10 nM. In addition, the EC50 in series [1] (setting [7]) was found to be 620 ± 50 nM. In series [5], the EC50 turned out to be 830 ± 260 nM.
